From BindingDB's records for doi:10.1021/jm0701019 (Abbott Laboratories, 2007)

The compounds below were run against T1, RAC-alpha serine/threonine-protein kinase [139-480,S378A,S381A,T450D,S473D] (Homo sapiens, UniProt P31749, S378A/S381A/S473D/T450D) (assay: Akt Kinase Assay). Conditions: not given.
T1 construct: 139-480
Protocol: The kinase assay uses His-Akt1 and a biotinylated peptide as substrate. The biotinylated peptides were immobilized on streptavidin-coated FLASH plates. After reaction, the 33P-phosphopeptide captured on the FLASH plates was measured with a TopCount Packard Instruments […] (Packard Instruments, Boston, MA).

T1 sequence (P31749 139-480 S378A/S381A/T450D/S473D): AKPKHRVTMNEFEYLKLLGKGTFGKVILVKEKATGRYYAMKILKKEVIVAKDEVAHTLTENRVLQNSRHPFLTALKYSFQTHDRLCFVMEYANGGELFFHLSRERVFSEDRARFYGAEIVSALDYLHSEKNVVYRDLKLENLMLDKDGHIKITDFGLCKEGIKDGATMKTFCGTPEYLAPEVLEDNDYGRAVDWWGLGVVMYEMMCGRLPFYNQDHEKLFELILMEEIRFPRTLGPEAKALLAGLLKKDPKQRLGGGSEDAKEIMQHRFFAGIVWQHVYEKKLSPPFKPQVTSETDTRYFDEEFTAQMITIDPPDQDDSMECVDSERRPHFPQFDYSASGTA

Structure (SMILES) | IC50 [nM]
Cc1n[nH]c2cnc(-c3cncc(OC[C@@H](N)Cc4cccc(C(F)(F)F)c4)c3)cc12 [3-[(2S)-2-amino-3-[3-(trifluoromethyl)phenyl]propoxy]-5-{3-methyl-1H-pyrazolo[3,4-c]pyridin-5-yl}pyridine] | 0.6
Cc1n[nH]c2ccc(-c3cncc(OC[C@@H](N)Cc4cccc(OCCN5CCOCC5)c4)c3)cc12 [4-(2-{3-[(2S)-2-amino-3-{[5-(3-methyl-1H-indazol-5-yl)pyridin-3-yl]oxy}propyl]phenoxy}ethyl)morpholine] | 751
Cc1n[nH]c2ccc(-c3cncc(OC[C@@H](N)Cc4ccc5c(c4)OC(F)(F)C(F)(F)O5)c3)cc12 [5-{5-[(2S)-2-amino-3-(2,2,3,3-tetrafluoro-2,3-dihydro-1,4-benzodioxin-6-yl)propoxy]pyridin-3-yl}-3-methyl-1H-indazole] | 13
Cc1n[nH]c2ccc(-c3cncc(OC[C@@H](N)Cc4cccc5c4OC(F)(F)O5)c3)cc12 [5-{5-[(2S)-2-amino-3-(2,2-difluoro-2H-1,3-benzodioxol-4-yl)propoxy]pyridin-3-yl}-3-methyl-1H-indazole] | 14
Cc1n[nH]c2ccc(-c3cncc(OC[C@@H](N)Cc4cccc(Cl)c4Cl)c3)cc12 [5-{5-[(2S)-2-amino-3-(2,3-dichlorophenyl)propoxy]pyridin-3-yl}-3-methyl-1H-indazole] | 5.6
Cc1n[nH]c2ccc(-c3cncc(OC[C@@H](N)Cc4ccccc4Cl)c3)cc12 [5-{5-[(2S)-2-amino-3-(2-chlorophenyl)propoxy]pyridin-3-yl}-3-methyl-1H-indazole] | 29
Cc1n[nH]c2ccc(-c3cncc(OC[C@@H](N)Cc4ccc5c(c4)OCO5)c3)cc12 [5-{5-[(2S)-2-amino-3-(2H-1,3-benzodioxol-5-yl)propoxy]pyridin-3-yl}-3-methyl-1H-indazole] | 42
Cc1n[nH]c2ccc(-c3cncc(OC[C@@H](N)Cc4cccc(I)c4)c3)cc12 [5-{5-[(2S)-2-amino-3-(3-iodophenyl)propoxy]pyridin-3-yl}-3-methyl-1H-indazole] | 0.9
Cc1n[nH]c2ccc(-c3cncc(OC[C@@H](N)Cc4cccc(-c5ccccc5)c4)c3)cc12 [5-{5-[(2S)-2-amino-3-(3-phenylphenyl)propoxy]pyridin-3-yl}-3-methyl-1H-indazole] | 126
Cc1n[nH]c2ccc(-c3cncc(OC[C@@H](N)Cc4ccccc4OC(F)(F)F)c3)cc12 [5-{5-[(2S)-2-amino-3-[2-(trifluoromethoxy)phenyl]propoxy]pyridin-3-yl}-3-methyl-1H-indazole] | 15.3
Cc1n[nH]c2ccc(-c3cncc(OC[C@@H](N)Cc4ccc(C(F)(F)F)cc4F)c3)cc12 [5-{5-[(2S)-2-amino-3-[2-fluoro-4-(trifluoromethyl)phenyl]propoxy]pyridin-3-yl}-3-methyl-1H-indazole] | 12.1
Cc1n[nH]c2ccc(-c3cncc(OC[C@@H](N)Cc4cc(C(F)(F)F)ccc4F)c3)cc12 [5-{5-[(2S)-2-amino-3-[2-fluoro-5-(trifluoromethyl)phenyl]propoxy]pyridin-3-yl}-3-methyl-1H-indazole] | 1.2
Cc1n[nH]c2ccc(-c3cncc(OC[C@@H](N)Cc4cc(C(F)(F)F)cc(C(F)(F)F)c4)c3)cc12 [5-{5-[(2S)-2-amino-3-[3,5-bis(trifluoromethyl)phenyl]propoxy]pyridin-3-yl}-3-methyl-1H-indazole] | 57
Cc1n[nH]c2ccc(-c3cncc(OC[C@@H](N)Cc4cccc(OCCN)c4)c3)cc12 [5-{5-[(2S)-2-amino-3-[3-(2-aminoethoxy)phenyl]propoxy]pyridin-3-yl}-3-methyl-1H-indazole] | 47
Cc1n[nH]c2ccc(-c3cncc(OC[C@@H](N)Cc4cccc(OCC5CCNCC5)c4)c3)cc12 [5-{5-[(2S)-2-amino-3-[3-(piperidin-4-ylmethoxy)phenyl]propoxy]pyridin-3-yl}-3-methyl-1H-indazole] | 6.8
Cc1n[nH]c2ccc(-c3cncc(OC[C@@H](N)Cc4ccc(C(F)(F)F)c(F)c4)c3)cc12 [5-{5-[(2S)-2-amino-3-[3-fluoro-4-(trifluoromethyl)phenyl]propoxy]pyridin-3-yl}-3-methyl-1H-indazole] | 3.1
Cc1n[nH]c2ccc(-c3cncc(OC[C@@H](N)Cc4ccc(F)c(C(F)(F)F)c4)c3)cc12 [5-{5-[(2S)-2-amino-3-[4-fluoro-3-(trifluoromethyl)phenyl]propoxy]pyridin-3-yl}-3-methyl-1H-indazole] | 1.8
Cc1n[nH]c2ccc(-c3cncc(OC[C@@H](N)Cc4cccc(OCCC5CCNCC5)c4)c3)cc12 [5-{5-[(2S)-2-amino-3-{3-[2-(piperidin-4-yl)ethoxy]phenyl}propoxy]pyridin-3-yl}-3-methyl-1H-indazole] | 290
Cc1n[nH]c2ccc(-c3cncc(OC[C@@H](N)Cc4cccc(OCC5CCN(C)CC5)c4)c3)cc12 [5-{5-[(2S)-2-amino-3-{3-[(1-methylpiperidin-4-yl)methoxy]phenyl}propoxy]pyridin-3-yl}-3-methyl-1H-indazole] | 78
Cc1n[nH]c2cnc(-c3cncc(OC[C@@H](N)Cc4cccc(F)c4F)c3)cc12 [(2S)-1-(2,3-difluorophenyl)-3-{[5-(3-methyl-1H-pyrazolo[3,4-c]pyridin-5-yl)pyridin-3-yl]oxy}propan-2-amine] | 5
Cc1n[nH]c2ccc(-c3cncc(OC[C@@H](N)Cc4ccc(Cl)c(Cl)c4)c3)cc12 [(2S)-1-(3,4-dichlorophenyl)-3-{[5-(3-methyl-1H-indazol-5-yl)pyridin-3-yl]oxy}propan-2-amine] | 1.8
Cc1n[nH]c2ccc(-c3cncc(OC[C@@H](N)Cc4cc(Cl)cc(Cl)c4)c3)cc12 [(2S)-1-(3,5-dichlorophenyl)-3-{[5-(3-methyl-1H-indazol-5-yl)pyridin-3-yl]oxy}propan-2-amine] | 20.7

Continued, values first:

IC50 [nM] | Structure (SMILES)
2.4 | Cc1ccc(C[C@H](N)COc2cncc(-c3ccc4[nH]nc(C)c4c3)c2)cc1F [5-{5-[(2S)-2-amino-3-(3-fluoro-4-methylphenyl)propoxy]pyridin-3-yl}-3-methyl-1H-indazole]
10 | Cc1n[nH]c2ccc(-c3cncc(OC[C@@H](N)Cc4ccc(Br)cc4F)c3)cc12 [5-{5-[(2S)-2-amino-3-(4-bromo-2-fluorophenyl)propoxy]pyridin-3-yl}-3-methyl-1H-indazole]
1.3 | Cc1n[nH]c2ccc(-c3cncc(OC[C@@H](N)Cc4ccc(Br)c(F)c4)c3)cc12 [5-{5-[(2S)-2-amino-3-(4-bromo-3-fluorophenyl)propoxy]pyridin-3-yl}-3-methyl-1H-indazole]
2.5 | Cc1cc(C[C@H](N)COc2cncc(-c3ccc4[nH]nc(C)c4c3)c2)ccc1Br [5-{5-[(2S)-2-amino-3-(4-bromo-3-methylphenyl)propoxy]pyridin-3-yl}-3-methyl-1H-indazole]
3.6 | Cc1n[nH]c2ccc(-c3cncc(OC[C@@H](N)Cc4ccc(Cl)c(F)c4)c3)cc12 [5-{5-[(2S)-2-amino-3-(4-chloro-3-fluorophenyl)propoxy]pyridin-3-yl}-3-methyl-1H-indazole]
6 | Cc1cc(F)ccc1C[C@H](N)COc1cncc(-c2ccc3[nH]nc(C)c3c2)c1 [5-{5-[(2S)-2-amino-3-(4-fluoro-2-methylphenyl)propoxy]pyridin-3-yl}-3-methyl-1H-indazole]
3.9 | Cc1ccc(F)cc1C[C@H](N)COc1cncc(-c2ccc3[nH]nc(C)c3c2)c1 [5-{5-[(2S)-2-amino-3-(5-fluoro-2-methylphenyl)propoxy]pyridin-3-yl}-3-methyl-1H-indazole]
39 | Cc1cc(C)c(C[C@H](N)COc2cncc(-c3ccc4[nH]nc(C)c4c3)c2)c(C)c1 [(2S)-1-(2,4,6-trimethylphenyl)-3-{[5-(3-methyl-1H-indazol-5-yl)pyridin-3-yl]oxy}propan-2-amine]
49 | Cc1n[nH]c2ccc(-c3cncc(OC[C@@H](N)Cc4c(F)cc(F)cc4Br)c3)cc12 [(2S)-1-(2-bromo-4,6-difluorophenyl)-3-{[5-(3-methyl-1H-indazol-5-yl)pyridin-3-yl]oxy}propan-2-amine]
23 | Cc1n[nH]c2ccc(-c3cncc(OC[C@@H](N)Cc4ccccc4Br)c3)cc12 [(2S)-1-(2-bromophenyl)-3-{[5-(3-methyl-1H-indazol-5-yl)pyridin-3-yl]oxy}propan-2-amine]

Same assay, conditions: pH 7.5; 22 °C

IC50 [nM] | Structure (SMILES)
2650 | N[C@H](COc1cncc(-c2ccc3c(c2)CC(=O)N3)c1)Cc1ccccc1 [5-(5-{[(2S)-2-amino-3-phenylpropyl]oxy}pyridin-3-yl)-1,3-dihydro-2H-indol-2-one]
12 | Cc1n[nH]c2ccc(-c3cncc(OC[C@@H](N)Cc4ccc(F)c(F)c4F)c3)cc12 [5-{5-[(2S)-2-amino-3-(2,3,4-trifluorophenyl)propoxy]pyridin-3-yl}-3-methyl-1H-indazole]
8.5 | Cc1n[nH]c2ccc(-c3cncc(OC[C@@H](N)Cc4cccc(F)c4F)c3)cc12 [5-{5-[(2S)-2-amino-3-(2,3-difluorophenyl)propoxy]pyridin-3-yl}-3-methyl-1H-indazole]
65.5 | Cc1n[nH]c2ccc(-c3cncc(OC[C@@H](N)Cc4c(F)cccc4F)c3)cc12 [5-{5-[(2S)-2-amino-3-(2,6-difluorophenyl)propoxy]pyridin-3-yl}-3-methyl-1H-indazole]
8.4 | Cc1n[nH]c2ccc(-c3cncc(OC[C@@H](N)Cc4cccc(F)c4)c3)cc12 [5-{5-[(2S)-2-amino-3-(3-fluorophenyl)propoxy]pyridin-3-yl}-3-methyl-1H-indazole]
31 | Cc1n[nH]c2ccc(-c3cncc(OC[C@@H](N)Cc4c(F)cc(F)cc4F)c3)cc12 [(2S)-1-(2,4,6-trifluorophenyl)-3-{[5-(3-methyl-1H-indazol-5-yl)pyridin-3-yl]oxy}propan-2-amine]
21 | Cc1n[nH]c2ccc(-c3cncc(OC[C@@H](N)Cc4ccc(F)cc4F)c3)cc12 [(2S)-1-(2,4-difluorophenyl)-3-{[5-(3-methyl-1H-indazol-5-yl)pyridin-3-yl]oxy}propan-2-amine]
